Peptide text beside a SMILES is read from it. * marks the point of attachment. Cbz = O=C(OCc1ccccc1)*
Experiments:
Type in all cases: cell-based, mouse
DC2.4 cells [1] = assay: Degradation of cell-bound bOVA in DC2.4 cells (pulse-chase, SA beads, Western blot); conditions: for effect on decrease (degradation) of cell-bound bOVA: DC2.4 cells incubated with bOVA one hour, chased up to four hours, inhibitor present; for effect on degradation of bOVA taken up into cells: FIG. 1b; for effect on degradation of accumulated bOVA (ERAD inhibition): DC2.4 cells pulsed with bOVA in the presence of MG-132, chased four hours; for effect on bOVA degradation: FIG. 4b
Method: Next, DC2.4 cells were incubated with bOVA for one hour, and this was then chased for up to four hours. Cell-bound bOVA was recovered from total cell lysates by streptavidin-agarose and separated by SDS-PAGE.
Depletion of Ca^2+ in the ER is known to inhibit ERAD. Thapsigargin (Tg) is known to decrease the Ca^2+ concentration in the ER lumen by binding to the ER membrane and functioning as an ionophore and to inhibit ERAD. Thus, in the presence of Tg, bOVA degradation by ERAD is predicted to be suppressed. DC2.4 cells were pulsed with bOVA in the presence of MG-132, then washed with PBS or with PBS containing 1 mM EGTA, and then chased for four hours.
Furthermore, the effect of tunicamycin treatment on bOVA accumulation was examined. When cells are treated with tunicamycin (Tm), N-type glycosylation is inhibited, and abnormally folded proteins accumulate in the ER lumen.

DC2.4 cells [2] = assay: MHC class I cross-presentation by DC2.4 cells to OT-I CD8+ T cells (IL-2 ELISA); conditions: for effect on stimulation of OT-I CD8+ T cells by OVA (IL-2 production) / effect on stimulation of OT-I CD8+ T cells by SIINFEKL peptide (IL-2 production): FIG. 8b; for effect on stimulation of OT-I CD8+ T cells by OVA (IL-2 production): OVA 250 μg mL−1; for effect on stimulation of OT-I CD8+ T cells by SIINFEKL peptide (IL-2 production): SIINFEKL 10 ng mL−1
From the text: Whether knock-down of cellular components involved in ERAD decreases the cross-presentation of exogenous OVA antigen was examined using a system for evaluating the level of antigen presentation, which uses naive CD8^+ T cells from OT-I mice and DC2.4 cells. The DC2.4 cells used as a model of dendritic cells are of the H-2Kb mouse MHC class I haplotype. OT-I (H-2Kb) mice are transgenic mice expressing a T cell receptor (TCRα and β) that recognizes an antigenic peptide (SIINFEKL) (SEQ ID NO: 15) derived from OVA presented on the H-2Kb molecules. The CD8^+ cells of OT-I mice are activated when they recognize OVA peptides presented by BMDCs derived from H-2Kb mice or by DC2.4 cells. When OVA or bOVA is incubated with and affixed onto DC2.4 cells and the cells are further incubated with naive CD8^+ T cells of OT-I mice, the amount of IL-2 produced by OT-I CD8^+ T cells serves as an index of T-cell stimulation as a result of OVA antigen presented by DC2.4 cells.
Parental or knocked-down DC2.4 cells were pre-incubated in a culture medium supplemented with 50 μg mL^−1 polymyxin B for 30 minutes in the presence or absence of lactacystin or MG-132, and incubated with OVA (250 μg mL^−1) or SIINFEKL peptides (10 ng mL^−1) for six hours. The cells were washed, fixed with 1% paraformaldehyde, and aliquoted into microtiter plates (5×10^4 per well). 5×10^4 CD8^+ T cells purified from splenocytes of OT-1 mice using magnetic beads were added to each well and after a 24-hour incubation, the IL-2 secretion was measured by ELISA (BD Biosciences) in triplicate.
DC2.4 cells were incubated with OVA (0, 50, or 250 μg/mL) in RPMI1640/10c% FCS for six hours at 37° C., in the presence or absence of pig-derived HSP90 (10 μg/mL). After washing away the antigen and HSP, OT-I CD8^+ T cells were added, cells were cultured overnight at 37° C., and the amount of IL-2 comprised in the supernatant was measured by the ELISA method.
The timing of the addition of HSP90 (10 μg/mL) and OVA (250 μg/mL) to DC2.4 cells was varied, and the effect on class I antigen presentation was observed. (i) HSP90 was added first, DC2.4 cells were washed, and then OVA was added. (ii) HSP90 and OVA were added simultaneously to DC2.4 cells. (iii) OVA was added first, and after washing DC2.4 cells, HSP90 was added. The results obtained under these three conditions were compared. As a control for all these conditions, an experiment in which only OVA, but not HSP90, was added was also carried out.
Under condition (i), HSP90 was added to DC2.4 cells, the cells were cultured for 30 minutes and then washed to remove HSP90. Next, OVA was added and the cells were cultured for three hours. Thereafter, OVA was removed by washing, and cells were cultured in just the culture medium for three hours. DC2.4 cells activated with OVA by the above procedure were plated in a 96-well plate, OT-I mouse-derived CD8^+ T cells were added to this, and after culturing overnight, the amount of IL-2 released into the supernatant was measured by ELISA.
Under condition (ii), OVA and HSP90 were added simultaneously to DC2.4 cells, cells were cultured for three hours, then washed, and cultured in just the culture medium for three hours. Thereafter, the procedures to investigate the activation of OT-I mouse-derived CD8^+ T cells was carried out similarly to in (i) above.
Under condition (iii), OVA was first added to DC2.4 cells, cells were cultured for three hours, and then washed to remove OVA. Next, HSP90 was added, and the cells were cultured for another three hours. The procedures that follow were carried out similarly to that of (i) and (ii). Meanwhile, timings were set such that the incubation times during the stage in which cells are in contact with OVA and the stage at which OVA has been taken up were the same under conditions (i) to (iii).

DC2.4 cells [3] = assay: MHC class II antigen presentation by DC2.4 cells to OT-II CD4+ T cells (IL-2 production); conditions: DC2.4 cells pretreated in the presence of NH4Cl, cultured with OVA
Method: DC2.4 cells pretreated in the presence of NH4Cl were cultured with OVA, and then the stimulation of OT-I CD8^+ T cells in response to MHC class I antigen presentation (circles) and stimulation of OT-II CD4^+ T cells in response to MHC class II antigen presentation (triangles) was determined by measuring IL-2 production levels. IL-2 production level in the presence of NH4Cl was expressed as a ratio relative to the control (IL-2 production was 700 pg/mL relative to OT-I, and 20 pg mL relative to OT-II).

## CC(C)C[C@@H](C=O)NC(=O)[C@H](CC(C)C)NC(=O)[C@H](CC(C)C)NC(=O)OCc1ccccc1 [MG-132, reference compound] (Cbz-Leu-Leu-Leu-aldehyde)
DC2.4 cells [1]
  effect on decrease (degradation) of cell-bound bOVA: this decrease was blocked
DC2.4 cells [1]; MG-132 10 μM
  effect on degradation of bOVA taken up into cells: reduced the degradation of bOVA taken up into cells
DC2.4 cells [2]; MG-132 25 μM
  effect on stimulation of OT-I CD8+ T cells by OVA (IL-2 production): suppressed stimulation by OVA
  effect on stimulation of OT-I CD8+ T cells by SIINFEKL peptide (IL-2 production): did not suppress stimulation by the SIINFEKL peptide

## Cl.N [NH4Cl, Ammonium chloride, reference compound]
DC2.4 cells [1]
  effect on decrease (degradation) of cell-bound bOVA: did not significantly affect bOVA degradation
DC2.4 cells [1]; NH4Cl 50 mM
  effect on degradation of bOVA taken up into cells: did not reduce this degradation
DC2.4 cells [3]
  effect on presentation of OVA antigen with MHC class II to OT-II CD4+ cells: inhibited the presentation with MHC class II
DC2.4 cells [2]; DC2.4 cells pretreated with inhibitor, cultured with OVA
  effect on presentation of OVA antigen with MHC class I to OT-I CD8+ T cells: did not reduce the presentation of the OVA antigen with MHC class I

## CC(=O)N[C@@H](CSC(=O)[C@]1([C@@H](O)C(C)C)NC(=O)[C@H](C)[C@@H]1O)C(=O)O [lactacystin, reference compound]
DC2.4 cells [1]
  effect on decrease (degradation) of cell-bound bOVA: this decrease was blocked
DC2.4 cells [1]; lactastatin 2 μM
  effect on degradation of bOVA taken up into cells: reduced the degradation of bOVA taken up into cells
DC2.4 cells [2]; Lactastatin 10 μM
  effect on stimulation of OT-I CD8+ T cells by OVA (IL-2 production): suppressed stimulation by OVA
  effect on stimulation of OT-I CD8+ T cells by SIINFEKL peptide (IL-2 production): did not suppress stimulation by the SIINFEKL peptide

## C/C=C(/C)C(=O)O[C@H]1C(C)=C2[C@H]([C@@H]1OC(=O)CCCCCCC)[C@@](C)(OC(C)=O)C[C@H](OC(=O)CCC)[C@@]1(O)[C@H]2OC(=O)[C@@]1(C)O [thapsigargin, Thapsigargin]
DC2.4 cells [1]
  effect on degradation of accumulated bOVA (ERAD inhibition): inhibited the degradation of accumulated bOVA
DC2.4 cells [1]; thapsigargin 300 nM
  effect on bOVA degradation: bOVA degradation is inhibited

## tunicamycin
DC2.4 cells [1]
  effect on degradation of accumulated bOVA (ERAD inhibition): bOVA degradation was inhibited
DC2.4 cells [1]; tunicamycin 2 g
  effect on bOVA degradation: bOVA degradation is inhibited

— patent publication US20080194020A1, “Methods For Producing Dendritic Cells That Have Acquired Ctl-Inducing Ability” (Medical and Biological Laboratories Co., Ltd., priority 2004, published 2008)
